According to patent publication EP0832650A2 (ELI LILLY AND COMPANY, priority 1996, dated 1998):
Counter-ions that a name gives are not always drawn.

Tested on: neuronal protein extravasation
Assay: Neuronal protein extravasation in dura after electrical stimulation of the trigeminal ganglion
Type: in vivo, Harlan Sprague-Dawley rats or guinea pigs
Conditions: 10 minutes before trigeminal ganglion stimulation, dose inhibiting extravasation by 50%, approximated from dose-response curve, species (rat or guinea pig) not given
Procedure: Harlan Sprague-Dawley rats (250-350 g) or guinea pigs from Charles River Laboratories (250-350 g) were anesthetized with sodium pentobarbital intraperitoneally (65 mg/kg or 45 mg/kg respectively) and placed in a stereotaxic frame (David Kopf Instruments) with the incisor bar set at -3.5 mm for rats or -4.0 mm for guinea pigs. Following a midline sagital scalp incision, two pairs of bilateral holes were drilled through the skull (6 mm posteriorly, 2.0 and 4.0 mm laterally in rats; 4 mm posteriorly and 3.2 and 5.2 mm laterally in guinea pigs, all coordinates referenced to bregma) . Pairs of stainless steel stimulating electrodes, insulated except at the tips, (Rhodes Medical Systems, Inc.) were lowered through the holes in both hemispheres to a depth of 9 mm (rats) or 10.5 mm (guinea pigs) from dura.
The femoral vein was exposed and a dose of the test compound was injected intravenously (1 mL/kg). Approximately 7 minutes later, a 50 mg/kg dose of Evans Blue, a fluorescent dye, was also injected intravenously. The Evans Blue complexed with proteins in the blood and functioned as a marker for protein extravasation. Exactly 10 minutes post-injection of the test compound, the left trigeminal ganglion was stimulated for 3 minutes at a current intensity of 1.0 mA (5 Hz, 4 msec duration) with a Model 273 potentiostat/ galvanostat (EG&G Princeton Applied Research).
Fifteen minutes following stimulation, the animals were killed by exsanguination with 40 mL of saline. The top of the skull was removed to facilitate the collection of the dural membranes. The membrane samples were removed from both hemispheres, rinsed with water, and spread flat on microscopic slides. Once dried, the tissues were coverslipped with a 70% glycerol/water solution.
A fluorescence microscope (Zeiss) equipped with a grating monochromator and a spectrophotometer was used to quantify the amount of Evans Blue dye in each sample. An excitation wavelength of approximately 535 nm was utilized and the emission intensity at 600 nm was determined. The microscope was equipped with a motorized stage and also interfaced with a personal computer. This facilitated the computer-controlled movement of the stage with fluorescence measurements at 25 points (500 µm steps) on each dural sample. The mean and standard deviation of the measurements was determined by the computer.
The extravasation induced by the electrical stimulation of the trigeminal ganglion was an ipsilateral effect (i.e. occurs only on the side of the dura in which the trigeminal ganglion was stimulated). This allows the other (unstimulated) half of the dura to be used as a control. The ratio of the amount of extravasation in the dura from the stimulated side compared to the unstimulated side dura was calculated. Saline controls yielded a ratio of approximately 2.0 in rats and 1.8 in guinea pigs. […]

| Structure (SMILES) | Inhibition of Protein Extravasation i.v. ID50 |
| --- | --- |
| CN(C)C1CCc2[nH]c3ccc(O)cc3c2C1 (centres unmarked) [Compound V, 6-hydroxy-3-dimethylamino-1,2,3,4-tetrahydrocarbazole] | 8.7e-09 mmol/kg |
| CCN(CC)C1CCc2cccc(Cl)c2C1.Cl (centres unmarked) [Compound IV, 8-chloro-2-diethylamino-1,2,3,4-tetrahydronaphthalene hydrochloride] | 1.2e-07 mmol/kg |
| O=C(O)C(=O)O.Oc1ccc2[nH]cc(C3CCNCC3)c2c1 [Compound III, 5-hydroxy-3-(4-piperidinyl)-1H-indole oxalate] | 8.9e-09 mmol/kg |
| Cn1cc(CCN2CCC(c3c[nH]c4ccc(F)cc34)CC2)cn1 [Compound II, 5-fluoro-3-<1-<2-<1-methyl-1H-pyrazol-4-yl>ethyl>-4-piperidinyl>-1H-indole hydrochloride] | 8.6e-10 mmol/kg |
| CNS(=O)(=O)Cc1ccc2[nH]cc(CCN(C)C)c2c1.O=C(O)CCC(=O)O [Compound I, 3-[2-(dimethylamino)ethyl]-N-methyl-1H-indole-5-methanesulfonamide butane-1,4-dioate (1:1)] | 2.6e-08 mmol/kg |
